Experimental data reported in ChEMBL document CHEMBL3868622, “Development of 1-aryl-3-furanyl/thienyl-imidazopyridine templates for inhibitors against hypoxia inducible factor (HIF)-1 transcriptional activity” (Bioorg Med Chem Lett, 2016).

Molecular target: Hypoxia inducible factors; HIF-1-alpha, HIF-2-alpha (Homo sapiens, UniProt Q16665+Q99814)
Assay: Inhibition of hypoxia-induced HIF1 transcriptional activity in human HeLa cells measured after 12 hrs by luciferase reporter gene assay
Type: cell-based

| Compound | IC50 |
| --- | --- |
| OCc1ccc(-c2nc(-c3ccccc3)c3ccccn23)o1 | 70 µM |
| OCc1ccc(-c2nc(-c3ccccc3CO)c3ccccn23)s1 | 9.4 µM |
| COc1ccccc1-c1nc(-c2ccc(CO)o2)n2ccccc12 | 75 µM |
| OCc1ccc(-c2nc(-c3ccncc3)c3ccccn23)s1 | 9.1 µM |
| OCc1ccc(-c2nc(-c3ccccc3CO)c3ccccn23)o1 | 6.5 µM |
| OCc1ccc(-c2nc(-c3cc(C(F)(F)F)cc(C(F)(F)F)c3)c3ccccn23)o1 | 25 µM |
| OCc1ccc(-c2nc(Cc3ccccc3)c3ccccn23)o1 | 56 µM |
| COc1ccc(-c2nc(-c3ccc(CO)o3)n3ccccc23)cc1 | 61 µM |
| OCc1ccc(-c2nc(-c3ccccc3)c3ccccn23)s1 | 3.7 µM |
| N#Cc1ccc(-c2nc(-c3ccc(CO)o3)n3ccccc23)cc1 | 7.4 µM |
| Cc1ccc(-c2nc(-c3ccc(CO)o3)n3ccccc23)cc1 | 39 µM |
| OCc1ccc(-c2nc(-c3ccc(C(F)(F)F)cc3)c3ccccn23)o1 | 17 µM |
